These are literature values, as cited in PMC8748714, “Dynamics of GLP-1R peptide agonist engagement are correlated with kinetics of G protein activation” (Nature Communications, 2022).

Data set [1] concerns GLP-1R. The source says: Despite this conservation, these peptides induce distinct signalling profiles and have different mechanisms for receptor interaction. […] While there was also conservation in the TM bundle interactions when engaged by the four peptides, differences were identified in how each peptide uses different networks to facilitate G protein coupling. This transmission of information across the TM bundle also enables G ...

Data set [2] concerns GLP-1R. The conditions noted are these: vs full-length exendin-4.

Take “GLP-1 (Ala2Gly): GLP-1 with Ala2Gly substitution”: in the data set with GLP-1R [1] (ref 31-33 (chimera ref 32)), the “effect of residue 2 substitution on affinity” value is recorded as “reduced affinity”. Consider “exendin(9–39): N-terminally truncated exendin-4 lacking the first 8 amino acids”, for which the “lower affinity than corresponding full-length peptide” value with GLP-1R [1] (exendin(9–39) vs exendin-4, GLP-1(15–36) vs GLP-1) is listed as 10–30 fold.

On to “truncation of the first two residues of exendin-4: exendin-4 truncated by the first two residues”, for which the “decrease in potency for cAMP signalling on truncation of first two residues” value in the data set with GLP-1R [2] is reported as ~ 200 fold. In addition, the “affinity on truncation of first two residues” value with GLP-1R [1] (vs full-length exendin-4) was “does not significantly alter its affinity”.
